# Results: patent publication US10273290B2, “Hydrocarbon double-stapled stabilized HIV-1 GP41 heptad repeat domain peptides” (DANA-FARBER CANCER INSTITUTE, INC., priority 2009, dated 2019)
# Entries after “also recorded” stand apart in the source; their conditions may differ. Read-outs that look alike come from different tables or passages of the source. Bridge positions count the residues as written; N and C are the ends. Square brackets hold non-standard residues; d marks the D form. Ends that are not written are not given here. Peptide text beside a SMILES is read from it. S5 = C=CCCC[C@](C)(N)C(=O)O; Nle = CCCC[C@H](N)C(=O)O
# Experiments:
# [1] = target: T1, chymotrypsin (Bos taurus, UniProt P00766); experiment: Protease resistance assay, chymotrypsin (LC/MS); assay type: in vitro ADME; details: pH 7.4, 0.5 chymotrypsin, peptide 25 μM
# T1 construct: purchased Sigma
# Procedure: The DAD signal was set to 280 nm with an 8 nm bandwidth and MSD set to scan mode with one channel at (M+2H)/2, +1 mass units and the other at (M+3H)/3, +1 mass units. Integration of each MSD signal yielded areas under the curve of >10^8 counts. Reaction samples were composed of 5 μL peptide in DMSO (1 mM stock) and 195 μL of buffer consisting of 50 mM phosphate buffer pH 7.4 containing 2 mM CaCl2. Upon injection of the 0 hr time point sample, 2 μL of 50 ng/μL chymotrypsin (Sigma) was added and the amount of intact peptide quantitated by serial injection over time. An internal control of acetylated tryptophan carboxamide at a concentration of 100 μM was used to normalize each MSD data point. A plot of MSD area versus time yielded an exponential decay curve and half-lives were determined by nonlinear regression analysis using Prism software (GraphPad).
# [2] = test system: pepsin; experiment: Protease resistance assay, pepsin at pH 2; details: for Half-life (minutes), pepsin: pepsin at 0.5 ng/μL, peptide 25 μM, acidic conditions
# Procedure: The DAD signal was set to 280 nm with an 8 nm bandwidth and MSD set to scan mode with one channel at (M+2H)/2, +1 mass units and the other at (M+3H)/3, +1 mass units. […] Reaction samples were composed of 5 μL peptide in DMSO (1 mM stock) and 195 μL of buffer consisting of 50 mM phosphate buffer pH 7.4 containing 2 mM CaCl2. Upon injection of the 0 hr time point sample, 2 μL of 50 ng/μL chymotrypsin (Sigma) was added and the amount of intact peptide quantitated by serial injection over time. An internal control of acetylated tryptophan carboxamide at a concentration of 100 μM was used to normalize each MSD data point. A plot of MSD area versus time yielded an exponential decay curve and half-lives were determined by nonlinear regression analysis using Prism software (GraphPad). The assay was also performed using trypsin and pepsin in their appropriate buffer conditions.
# [3] = test system: HIV-1 strains HXBc2, ADA, and HXBc2P 3.2; experiment: Luciferase-based HIV-1 infectivity assay, three strains; assay type: cell-based
# Procedure: Also the direct inhibitory activity of modified polypeptides and the antibodies targeted thereto can be quantified based upon their capacity to directly block HIV infection of CD4-positive and CCR5-expressing canine thymus cells. […] The identical experiment is performed with the amphotropic murine leukemia virus (AMLV), to monitor for any nonspecific effects of the modified polypeptides or antibodies.
# (§1) HIV-1 infectivity assays were performed using known methods (Madani et al., 2007 Inhibition of human immunodeficiency virus envelope glycoprotein-mediated single cell lysis by low-molecular-weight antagonists of viral entry. J Virol, 81: 532-538; and Si et al., 2001 Envelope glycoprotein determinants of neutralization resistance in a simian-human immunodeficiency virus (SHIV-HXBc2P 3.2) derived by passage in monkeys. J Virol, 75:4208-4218; both incorporated herein by reference). […] Virus-containing supernatants were harvested 24-30 hr after transfection, filtered, aliquoted, and stored at −80° C. Target cells were seeded at a density of 6×10^3 cells/well in 96-well plates 24 hours prior to infection. Cf2Th-CD4-CCR5 cells were used for infections by viruses with the ADA, YU2, and A-MLV envelope glycoproteins, and Cf2Th-CD4-CXCR4 cells used for HXBc2, HXBc2P 3.2, and A-MLV. On the day of infection, the structured peptides (0-3 μM) were added to recombinant viruses (10,000 RT units) to a final volume of 50 μL and incubated at 37° C. for 30 min. Media was then removed and the target cells incubated with virus-peptide mixture for 48 hours at 37° C. The media was again removed and the cells lysed with 30 μL of passive lysis buffer (Promega) and three freeze-thaw cycles.
# Recombinant HIV-1 bearing the envelope glycoproteins from three distinct HIV-1 strains, HXBc2, ADA, and HXBc2P 3.2, and a negative control virus bearing the amphotropic murine leukemia virus (A-MLV) envelope glycoproteins, were evaluated.
# [4] = test system: 4E10 antibody; experiment: Competitive 4E10 antibody binding by ELISA; design: species or system human; details: competition with wild-type MPER peptide probe
# Procedure: Half maximal inhibitory concentrations (IC50s) were determined by competitive enzyme-linked assay (ELISA) using a constant concentration of biotinylated peptide and 4E10-IgG with a variable concentration of gp41 peptides. Microwells were coated overnight at 4° C. with 50 μl of PBS containing neutravidin (4 μg/ml). Wells were washed twice with PBS containing 0.05% Tween 20, and blocked with 4% non-fat dry milk (NFDM) in PBS for 45 min at 37° C. Meanwhile, a mixture of a biotinylated 4E10-peptide epitope, biotin-PEG2-[…], (20 nM), IgG 4E10 (0.2 nM), and the competing peptide analogue (threefold dilution series starting at 10 μM) in 0.4% NFDM, 0.02% Tween and PBS was incubated in a separate 96-well plate at 37° C. for 2 h. After washing the blocked plate, the mixture of 4E10, biotinylated peptide and competing structured HIV-1 gp41 peptide was added to the wells. After 20 min at room temperature, the wells were washed five times, and a 1:500 dilution of Goat Anti-Human IgG F(ab′)2, Peroxidase Conjugate was added. […] After 20 min, wells containing TMB solution were stopped by adding 50 μl of H2SO4 (2 M), and the absorbance at 450 nm was read on a microplate reader (Molecular Devices). The concentration of competitor peptide corresponding to a half-maximal signal (IC50) was determined by interpolation of the resulting binding curve using GraphPad Prism. […]
# [5] = Chymotrypsin, pH 7
# Text: (§2) Title: Chymotrypsin, pH 7
# First reader's note: The table also serves as the legend of the plot of fraction intact over time; the line and marker symbols are left out.
# [6] = Chymotrypsin, pH 7; remark: listed apart in the source
# Text: Table printed on a drawing sheet, FIG. 17D
# as §2
# First reader's note: The table also serves as the legend of the plot below it (fraction intact over time); the plot symbols before the compound names are left out.
# [7] = test system: HIV-1 HXBc2 virus bearing HR1 double mutations V38A/N42T and V38E/N42S; experiment: HIV-1 infectivity assay, enfuvirtide-resistant HR1 double mutants; assay type: cell-based
# Procedure: as §1
# [8] = Circular dichroism, α-helical content; assay type: physicochemical
# Procedure: The α-helicity of stapled modified polypeptides was compared to their unmodified counterparts by circular dichroism. CD spectra were obtained on an Aviv spectropolarimeter at 20° C. using the following standard measurement parameters: wavelength, 190-260 nm; step resolution, 0.5 nm; speed, 20 nm/sec; accumulations, 10; response, 1 sec; bandwidth, 1 nm; path length, 0.1 cm. The α-helical content of each peptide was calculated by dividing the mean residue ellipticity [θ]222obs, by the reported [θ]222obs for a model helical peptide (Forood, B., E. J. Feliciano, and K. P. Nambiar, PNAS, 1993. 90(3): p. 838-842; J. Martin Scholtz, Biopolymers, 1991. 31(13): p. 1463-1470; Lawless, M. K., et al., Biochemistry, 1996. 35(42): p. 13697-13708) or using, for example, the Aviv machine using CDNN software developed by Brohm in order to deduce five different secondary structure fractions (helix, parallel and antiparallel beta-sheet, beta-turn and random coil). Protein Engineering, 1992. 5(3); p. 191-195
# In order to evaluate secondary structure improvements of hydrocarbon-stapled peptides, we record and analyze circular dichroism (CD) spectra on an Aviv Biomedical spectrometer (model 410), as described above. […] The CD spectra are initially plotted as wavelength versus millidegree. […] After conversion to mean residue ellipticity, percent α-helicity can be calculated using the equation, % helicity=100×[θ]222/^max[θ]222, where ^max[θ]222=−40,000×[1−(2.5/number of amino acid residues)]. We also employ the curve-fitting CDDN software that is bundled with our spectrometer to calculate the relative fractions of secondary structure including α-helix, parallel and antiparallel β-sheet, β-turn and random coil.
compound,measurement,setting,value
"CCCC[C@H](NC(C)=O)C(=O)N[C@H](C(=O)N[C@@H](Cc1c[nH]c2ccccc12)C(=O)N[C@@H](CCCC)C(=O)N[C@@H](CCC(=O)O)C(=O)N[C@@H](Cc1c[nH]c2ccccc12)C(=O)N[C@@]1(C)CCCC=CCCC[C@@](C)(C(=O)N[C@@H](CC(N)=O)C(=O)N[C@@H](Cc2ccc(O)cc2)C(=O)N[C@H](C(=O)N[C@@H](CO)C(=O)N[C@@H](CC(C)C)C(=O)N[C@H](C(=O)N[C@@H](Cc2c[nH]cn2)C(=O)N[C@@H](CO)C(=O)N[C@@H](CC(C)C)C(=O)N[C@H](C(=O)N[C@@H](CCC(=O)O)C(=O)N[C@@H](CCC(=O)O)C(=O)N[C@@H](CO)C(=O)N[C@@H](CCC(N)=O)C(=O)N[C@@H](CC(N)=O)C(=O)N[C@@H](CCC(N)=O)C(=O)N[C@@]2(C)CCCC=CCCC[C@@](C)(C(=O)N[C@@H](CCC(N)=O)C(=O)N[C@@H](CCC(=O)O)C(=O)N[C@@H](CC(C)C)C(=O)N[C@@H](CC(C)C)C(=O)N[C@@H](CCC(=O)O)C(N)=O)NC(=O)[C@H](CC(N)=O)NC(=O)[C@H](CCCCN)NC(=O)[C@H](CCC(=O)O)NC2=O)[C@@H](C)CC)[C@@H](C)CC)[C@@H](C)O)NC(=O)[C@H]([C@@H](C)CC)NC(=O)[C@H](CCC(=O)O)NC(=O)[C@H](CCCNC(=N)N)NC1=O)[C@@H](C)O [SAH-gp41(626-662)(B, F)] (Ac-[Nle]TW[Nle]EW[S5]REI[S5]NYTSLIHSLIEESQNQ[S5]EKN[S5]QELLE-NH2; staple 7-11, 28-32)",Half-Life,[1],21.2 h
same,half-life at 25 μM,"[2]; pepsin (isolated protease) in buffer, pH 2",15.5 h
same,"anti-HIV-1 (anti-viral) activity, in words",[3],relatively impaired anti-viral activity
"SEQ ID NO:135: i, i+4 singly stapled SAH-MPER peptide stapled in a similar position (ELDKWASLWNWFNITN[S5]LWY[S5]K-NH2; staple 17-21)","competition for 4E10 antibody binding, in words",[4],superior to the wild-type MPER peptide
"SEQ ID NO:136: i, i+3 singly stapled SAH-MPER peptide (ELDKWASLWNWFNITN[S5]LW[S5]IK-NH2; staple 17-20)","competition for 4E10 antibody binding, in words",[4],"compete more effectively for binding than an i, i+4 stapled peptide stapled in a similar position; also recorded: superior to the wild-type MPER peptide"
Sifuvirtide,Half-Life,[5],2 min
enfuvirtide [listing 1 of 2 here],"Half-life (minutes), pepsin",[2],3320 min
same,Half-Life,[6],16.73 h
same,"anti-HIV-1 (anti-viral) activity, in words",[3],relatively impaired anti-viral activity
enfuvirtide [listing 2 of 2 here],"Half-life (minutes), pepsin",[2],4 min
same,"functional activity against HR1 double-mutant HIV-1, in words",[7],no functional activity
same,% helicity at pH 2,[8]; pH 2,49%
same,% helicity at pH 7,[8]; pH 7,19%
same,calculated α-helical content,[8]; physiologic pH,~25%
